# According to PubChem BioAssay AID296 (DTP/NCI, 2004):
# Several values for one entry are separate records, joined by “and”; a condition that tells them apart may be missing. Equal values may be shown once. Results filed as inconclusive are left out. Where a SMILES comes first, the peptide text is derived from it. The star is where a group is joined. Trt = c1ccc(C(c2ccccc2)(c2ccccc2)*)cc1; Cbz = O=C(OCc1ccccc1)*
# System: MX-1 breast xenograft, nude mice, tumor weight T/C
# Experiment: NCI In Vivo Anticancer Drug Screen. Data for tumor model Human Mammary Carcinoma MX-1 Xenograft (intrarenal inoculation) in NU/NU Swiss (nude) mice
# Conditions: endpoint: mean tumor weight change, higher = larger tumour
# How it was run: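 Mice carrying the implanted tumor receive either test agent or vehicle. Tumor size or survival is then recorded for both groups. Results are stated as the treated-to-control quotient.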
# [1] = dose: 50.0 mg/kg/injection, schedule: Q01DX010 (sc), vehicle: Klucel (hydroxypropylcellulose) (HPC)
# [2] = dose: 100.0 mg/kg/injection, schedule: Q01DX010 (sc), vehicle: Klucel (hydroxypropylcellulose) (HPC)
# [3] = dose: 200.0 mg/kg/injection, schedule: Q01DX010 (sc), vehicle: Klucel (hydroxypropylcellulose) (HPC)
# [4] = dose: 800.0 mg/kg/injection, schedule: Q04DX003 (sc), vehicle: Klucel (hydroxypropylcellulose) (HPC)
# [5] = dose: 300.0 mg/kg/injection, schedule: Q04DX003 (sc), vehicle: distilled water + Tween-80
# [6] = dose: 600.0 mg/kg/injection, schedule: Q04DX003 (sc), vehicle: distilled water + Tween-80
# [7] = dose: 1200.0 mg/kg/injection, schedule: Q04DX003 (sc), vehicle: distilled water + Tween-80
# [8] = dose: 2400.0 mg/kg/injection, schedule: Q04DX003 (sc), vehicle: distilled water + Tween-80
# [9] = dose: 150.0 mg/kg/injection, schedule: Q04DX003 (sc), vehicle: saline with Tween-80
# [10] = dose: 300.0 mg/kg/injection, schedule: Q04DX003 (sc), vehicle: saline with Tween-80
# [11] = dose: 600.0 mg/kg/injection, schedule: Q04DX003 (sc), vehicle: saline with Tween-80
# [12] = dose: 37.5 mg/kg/injection, schedule: Q04DX003 (sc), vehicle: saline with Tween-80
# [13] = dose: 75.0 mg/kg/injection, schedule: Q04DX003 (sc), vehicle: saline with Tween-80
# [14] = dose: 600.0 mg/kg/injection, schedule: Q04DX003 (sc), vehicle: Klucel (hydroxypropylcellulose) (HPC)
# [15] = dose: 2400.0 mg/kg/injection, schedule: Q04DX003 (sc), vehicle: Klucel (hydroxypropylcellulose) (HPC)
# [16] = dose: 1200.0 mg/kg/injection, schedule: Q04DX003 (sc), vehicle: saline with Tween-80
# [17] = dose: 300.0 mg/kg/injection, schedule: Q04DX003 (sc), vehicle: Klucel (hydroxypropylcellulose) (HPC)
# [18] = dose: 1200.0 mg/kg/injection, schedule: Q04DX003 (sc), vehicle: Klucel (hydroxypropylcellulose) (HPC)
compound,measurement,setting,value
CNC(=O)OCc1c(COC(=O)NC)c(C)n(-c2ccc(OC)cc2)c1C,T/C,[1],41 % of control
same,T/C,"dose: 50.0 mg/kg/injection, schedule: Q04DX003 (sc), vehicle: Klucel (hydroxypropylcellulose) (HPC)",110 % of control
same,T/C,[2],9 % of control
same,T/C,"dose: 100.0 mg/kg/injection, schedule: Q04DX003 (sc), vehicle: Klucel (hydroxypropylcellulose) (HPC)",46 % of control
same,T/C,[3],-52 % of control
same,T/C,"dose: 400.0 mg/kg/injection, schedule: Q01DX010 (sc), vehicle: Klucel (hydroxypropylcellulose) (HPC)",-61 % of control
same,T/C,[4],-100 % of control
same,T/C,"dose: 1600.0 mg/kg/injection, schedule: Q04DX003 (sc), vehicle: Klucel (hydroxypropylcellulose) (HPC)",-100 % of control
COC(=O)C(CSC(c1ccccc1)(c1ccccc1)c1ccccc1)NC(=O)C(CC(N)=O)NC(=O)OCc1ccccc1 (stereo not drawn) (Cbz-Asn-Cys(Trt)-OMe; configuration not given here),T/C,[5],97 % of control
same,T/C,[6],77 % of control
same,T/C,[7],78 % of control
same,T/C,[8],94 % of control
O=Cc1c(O)c2ccccc2[nH]c1=O,T/C,[9],118 % of control
same,T/C,[10],99 % of control
same,T/C,[11],86 % of control
C/C(=C\c1ccccc1)[N+](=O)[O-],T/C,"dose: 25.0 mg/kg/injection, schedule: Q01DX010 (sc), vehicle: Klucel (hydroxypropylcellulose) (HPC)",38 % of control
same,T/C,[1],88 % of control
same,T/C,[2],45 % of control and 53 % of control
same,T/C,[3],55 % of control and 59 % of control
COc1ccc(S(=O)(=O)N=N/C=C2\C=CC=CN2O)cc1OC,T/C,[12],81 % of control
same,T/C,[13],61 % of control
same,T/C,[9],47 % of control
same,T/C,[10],64 % of control
C[CH2][Sn]([CH2]C)([CH2]C(=O)OC)[CH2]C(=O)OC,T/C,"dose: 12.5 mg/kg/injection, schedule: Q04DX003 (sc), vehicle: saline with Tween-80",79 % of control
same,T/C,"dose: 25.0 mg/kg/injection, schedule: Q04DX003 (sc), vehicle: saline with Tween-80",116 % of control
CCC1CCCCN1C(=S)N/N=C(\C)c1ccccn1 (stereo not drawn),T/C,"dose: 18.75 mg/kg/injection, schedule: Q04DX003 (sc), vehicle: saline with Tween-80",53 % of control
same,T/C,[12],97 % of control
same,T/C,[13],82 % of control
O=Cc1ccc(O)c(O)c1,T/C,[10],181 % of control
COc1ccc(C(=O)C(CN(C)C)CN(C)C)cc1,T/C,"dose: 12.5 mg/kg/injection, schedule: Q04DX003 (sc), vehicle: saline",101 % of control
same,T/C,"dose: 25.0 mg/kg/injection, schedule: Q04DX003 (sc), vehicle: saline",123 % of control
same,T/C,"dose: 50.0 mg/kg/injection, schedule: Q04DX003 (sc), vehicle: saline",85 % of control
CC(=O)N(C)c1ccc(Nc2cc(C)[nH]c3ccc4ncnc4c23)cc1,T/C,"dose: 50.0 mg/kg/injection, schedule: Q04DX003 (sc), vehicle: saline with Tween-80",102 % of control
same,T/C,"dose: 100.0 mg/kg/injection, schedule: Q04DX003 (sc), vehicle: saline with Tween-80",84 % of control
same,T/C,"dose: 200.0 mg/kg/injection, schedule: Q04DX003 (sc), vehicle: saline with Tween-80",69 % of control
O=Cc1ccc(C=O)c(Cl)c1,T/C,[14],77 % of control
same,T/C,[15],120 % of control
O=Cc1ccccc1,T/C,"dose: 200.0 mg/kg/injection, schedule: Q04DX003 (sc), vehicle: Klucel (hydroxypropylcellulose) (HPC)",96 % of control
same,T/C,"dose: 400.0 mg/kg/injection, schedule: Q04DX003 (sc), vehicle: Klucel (hydroxypropylcellulose) (HPC)",92 % of control
same,T/C,[4],85 % of control
CCCCCCCCCCS(=O)CC(CO)NC(=O)/C=C/c1c(C)[nH]c(=O)[nH]c1=O (stereo not drawn),T/C,"dose: 9.38 mg/kg/injection, schedule: Q04DX003 (sc), vehicle: distilled water + Tween-80",88 % of control
same,T/C,"dose: 18.75 mg/kg/injection, schedule: Q04DX003 (sc), vehicle: distilled water + Tween-80",113 % of control
same,T/C,"dose: 37.5 mg/kg/injection, schedule: Q04DX003 (sc), vehicle: distilled water + Tween-80",46 % of control
O=C(O)c1cc(C(=O)O)c(C(=O)O)cc1C(=O)O.[NH2-].[NH2-].[NH2-].[NH2-].[Pt+2].[Pt+2],T/C,"dose: 1.25 mg/kg/injection, schedule: Q04DX003 (ip), vehicle: water",113 % of control
same,T/C,"dose: 5.0 mg/kg/injection, schedule: Q04DX003 (ip), vehicle: water",97 % of control
same,T/C,"dose: 10.0 mg/kg/injection, schedule: Q04DX003 (ip), vehicle: water",60 % of control and 76 % of control
same,T/C,"dose: 20.0 mg/kg/injection, schedule: Q04DX003 (ip), vehicle: water",66 % of control
same,T/C,"dose: 40.0 mg/kg/injection, schedule: Q04DX003 (ip), vehicle: water",26 % of control
same,T/C,"dose: 80.0 mg/kg/injection, schedule: Q04DX003 (ip), vehicle: water",15 % of control
CNC(=O)OCc1c(COC(=O)NC)c(-c2ccc(Cl)c(Cl)c2)n2c1Cc1ccccc1C2,T/C,[5],64 % of control
same,T/C,[6],70 % of control
same,T/C,[7],103 % of control
same,T/C,[8],36 % of control
O=c1c(O)c(-c2cc(O)c(O)c(O)c2)oc2cc(O)cc(O)c12,T/C,"dose: 3.0 mg/kg/injection, schedule: Q04DX003 (sc), vehicle: saline with Tween-80",117 % of control
same,T/C,"dose: 6.0 mg/kg/injection, schedule: Q04DX003 (sc), vehicle: saline with Tween-80",97 % of control
same,T/C,"dose: 12.0 mg/kg/injection, schedule: Q04DX003 (sc), vehicle: saline with Tween-80",108 % of control
same,T/C,"dose: 24.0 mg/kg/injection, schedule: Q04DX003 (sc), vehicle: saline with Tween-80",81 % of control
O=C1NC(O)c2ccccc2O1 (stereo not drawn),T/C,"dose: 300.0 mg/kg/injection, schedule: Q04DX003 (sc), vehicle: suspension in saline",25 % of control
same,T/C,"dose: 600.0 mg/kg/injection, schedule: Q04DX003 (sc), vehicle: suspension in saline",30 % of control
same,T/C,"dose: 1200.0 mg/kg/injection, schedule: Q04DX003 (sc), vehicle: suspension in saline",26 % of control
same,T/C,"dose: 2400.0 mg/kg/injection, schedule: Q04DX003 (sc), vehicle: suspension in saline",29 % of control
CC1=C(C)C(=O)O[C@@H]([C@](C)(O)[C@]2(O)CC[C@@]3(O)[C@@H]4C[C@H]5O[C@]56[C@@H](O)C=CC(=O)[C@]6(C)[C@H]4CC[C@]23C)C1,T/C,"dose: 16.0 mg/kg/injection, schedule: Q01DX010 (sc), vehicle: saline",155 % of control
same,T/C,"dose: 32.0 mg/kg/injection, schedule: Q01DX010 (sc), vehicle: saline",95 % of control
same,T/C,"dose: 64.0 mg/kg/injection, schedule: Q01DX010 (sc), vehicle: saline",75 % of control
CCOC(=O)C(C)(C)Oc1ccc(Cl)cc1,T/C,[10],95 % of control
same,T/C,[11],90 % of control
same,T/C,[16],71 % of control
ClCc1ccc2ccccc2n1,T/C,[9],98 % of control
same,T/C,[10],98 % of control
same,T/C,[16],116 % of control
O=NN(CCCl)C(=O)Oc1ccc(OC(=O)N(CCCl)N=O)cc1,T/C,"dose: 150.0 mg/kg/injection, schedule: Q04DX003 (sc), vehicle: Klucel (hydroxypropylcellulose) (HPC)",107 % of control
same,T/C,[17],95 % of control
same,T/C,[14],91 % of control
same,T/C,[18],117 % of control
O=[N+]([O-])c1ccc(N(CCO)CCO)c2c1no[n+]2[O-],T/C,"dose: 12.5 mg/kg/injection, schedule: Q04DX003 (ip), vehicle: saline with Tween-80",101 % of control
same,T/C,"dose: 25.0 mg/kg/injection, schedule: Q04DX003 (ip), vehicle: saline with Tween-80",108 % of control
same,T/C,"dose: 50.0 mg/kg/injection, schedule: Q04DX003 (ip), vehicle: saline with Tween-80",75 % of control
O=CC(=O)c1ccc(O)cc1,T/C,"dose: 150.0 mg/kg/injection, schedule: Q04DX003 (sc), vehicle: saline",95 % of control
same,T/C,"dose: 300.0 mg/kg/injection, schedule: Q04DX003 (sc), vehicle: saline",69 % of control
OCC1OC(n2cnc3c(NO)ncnc32)C(O)C1O (stereo not drawn),T/C,[17],65 % of control
same,T/C,[14],70 % of control
same,T/C,[18],100 % of control
same,T/C,[15],82 % of control
